Assay results published in PubChem BioAssay AID1996.
≈ marks a conversion by molar mass, not a printed value.

conditions: buffer; pH 7.4; 200.0 µM

solubility kinetic [µg/mL] | SMILES
2.8 (≈ 9.58 µM) | CCn1c(/C=C/c2ccc(O)cc2)nc2ccccc2c1=O
1.5 (≈ 3.88 µM) | CCOc1ncccc1C(=O)OCC(=O)Nc1cc(C(C)(C)C)ccc1OC
37.2 (≈ 147 µM) | Cc1cc(F)ccc1NC(=S)NC1CCCC1
> 47.2 | CCOC(=O)Cn1cnc2scc(-c3ccccc3)c2c1=O
> 47.9 | O=C1CN(S(=O)(=O)c2cccc(Br)c2)CCN1
27.8 (≈ 89.8 µM) | Cc1ccc(NC(=O)C2C3CCC(O3)C2C(=O)O)cc1Cl (stereo unspecified)
1.6 (≈ 7.02 µM) | Clc1ccccc1CN1CCSCC1
2.8 (≈ 9.58 µM) | Cc1cc(C(=O)Nc2ccccc2Cc2ccccc2)no1
> 46 | CCOC(=O)C1(CCOC)CCN(Cc2ccncc2)CC1
2.9 (≈ 9.82 µM) | Cc1c(C(=O)Nc2ccc3c(c2)OCO3)oc2ccccc12
1.2 (≈ 4.37 µM) | Cc1ccc2oc(/N=C(\N)NC(=O)C(C)(C)C)nc2c1
47.4 (≈ 138 µM) | COc1ccc(S(=O)(=O)NCCCN2CCCC2=O)cc1OC
> 27.8 | Cc1cc(C)c(C(=O)O)c(Cl)n1
4.4 (≈ 13.7 µM) | CCc1ccc(CCC(=O)Nc2ccc(Br)cc2)o1
> 42.7 | CSCC(C)N1CCC(CCC(=O)NC2CC2)CC1 (stereo unspecified)
49.6 (≈ 133 µM) | CCN1CCN(c2nc(Nc3ccc(OC)cc3)nc(N)c2[N+](=O)[O-])CC1
< 0.7 | CCOc1ccc(NC(=O)c2cc3ccccc3cc2OC)cc1
0.4 (≈ 1.22 µM) | Oc1ccc(-c2nccc(-c3ccc(Br)cc3)n2)cc1
24.3 (≈ 83.9 µM) | CCN(CC)CCC(O)(c1ccccc1)C1CCCCC1 (stereo unspecified)
> 33.8 | Nc1ccc(C(=O)C(=O)c2ccccc2)cc1
43.3 (≈ 141 µM) | COCCNc1oc(Cc2cccc3ccccc23)nc1C#N
6.2 (≈ 20.9 µM) | O=C(NCc1ccccc1Cl)c1ccc2ccccc2n1
> 48 | CCN(CC(=O)Nc1c(F)cccc1F)C(=O)c1cnccn1
41.4 (≈ 128 µM) | CC(C)N1CCN(Cc2nc3c(s2)CCCC3)CC1CCO (stereo unspecified)

solubility kinetic [µg/mL] | SMILES
2.8 (≈ 8.82 µM) | CCNc1nc(NCC)nc(Oc2ccc(C(=O)OC)cc2)n1
41.6 (≈ 134 µM) | CN(C)C(=O)COc1ccc(C(=O)/C=C/c2cccnc2)cc1
21.1 (≈ 77.5 µM) | O=C(NCc1ccccc1)NC(=O)c1ccccc1F
26.8 (≈ 126 µM) | CCN(CC)C(=O)c1cc(Cl)ccn1
6.5 (≈ 17.7 µM) | O=C(NC1CCCCCC1)c1cccc(S(=O)(=O)N2CCOCC2)c1
> 38.3 | Cc1ccc(C(=O)NCc2nc3ccccc3[nH]2)o1
> 42.6 | C/C(=N\NC(=O)c1cccc([N+](=O)[O-])c1)c1ccncc1
36.3 (≈ 134 µM) | CC1C(=O)N2CCCc3cc(NC(=O)C4CC4)cc1c32 (stereo unspecified)
> 61.7 | CC(NC(=O)CN(c1ccc(Br)cc1)S(C)(=O)=O)c1ccccc1 (stereo unspecified)
42.5 (≈ 131 µM) | COCCNC(=S)N1CCN(Cc2cccc(OC)c2)CC1
40.5 (≈ 131 µM) | COc1ccc2nc(C)cc(Nc3ccc(C(=O)O)cc3)c2c1
22.2 (≈ 88 µM) | C/C(=N/O)c1cccc(N2Cc3ccccc3C2)c1
> 52.6 | O=C1OC(NCc2cccnc2)(c2ccc(Cl)cc2)c2ccccc21 (stereo unspecified)
15.2 (≈ 52.2 µM) | COc1ccc(C(=O)NC2CCCCCCC2)cc1OC
8.7 (≈ 26 µM) | CC(C)Cc1ccc(C(=O)Nc2ccc(Cc3ccncc3)cc2)o1
12.5 (≈ 42.6 µM) | Cc1ccc(C(=O)Nc2ccccc2Oc2ccccc2)o1
3.6 (≈ 7.21 µM) | Cc1ccc(C(=O)OCC(=O)N2c3ccccc3NC(=O)C2(C)C)cc1S(=O)(=O)N1CCCCC1
2.4 (≈ 6.38 µM) | COc1ccc(C(=O)OCC(=O)NC(=O)Nc2ccccc2F)c(OC)c1
> 46 | NS(=O)(=O)c1ccc(CCNC(=O)c2cnccn2)cc1
> 43.4 | Cc1ccc(S(=O)(=O)NC(=O)c2ccccc2C)cc1
2.5 (≈ 10.9 µM) | Clc1ccc(-c2cn3ccccc3n2)cc1
> 38.7 | Cc1cccc(/N=C/C2=C(O)CC(C)(C)CC2=O)n1
> 54.2 | CCc1cc(C(=O)c2ccc(OC)cc2)c(NC(=O)CCC(=O)O)s1
< 0.3 | CC(C)NC(=O)c1c(O)c2cccc3c2n(c1=O)CCC3

solubility kinetic [µg/mL] | SMILES
3.6 (≈ 9.75 µM) | O=C(N/C(=C\c1ccco1)C(=O)N1CCCCC1)c1ccc([N+](=O)[O-])cc1
5.6 (≈ 17.1 µM) | Cc1cc(/C=C2\SC(=O)N(C)C2=O)c(C)n1-c1ccc(O)cc1
> 50.2 | CC(=O)Nc1ccc2nc(NC(=O)CN3CCOCC3)sc2c1
14.5 (≈ 44 µM) | O=C(COC(=O)c1ccccc1O)NC12CC3CC(CC(C3)C1)C2
0.8 (≈ 2.73 µM) | O=C(c1ccccc1F)n1c2c(c3ccccc31)CCCC2
> 38.6 | O=C(NCc1nc2ccccc2[nH]1)C1CCCCC1
0.5 (≈ 1.55 µM) | Cn1c(=O)c(C(=O)NCCc2ccccc2)c(O)c2ccccc21
46.7 | CN(C)CCOC1c2ccccc2CSc2ccccc21.O=CO (stereo unspecified)
12.3 (≈ 34.3 µM) | CC(CCc1ccccc1)NC(=O)CCNC(=O)c1ccccc1Cl (stereo unspecified)
22 (≈ 82.8 µM) | O=S(=O)(c1ccc(Cl)s1)N1CCCCC1
> 41 | CCOc1ccc(N2C(=O)CC(NCC#N)C2=O)cc1 (stereo unspecified)
43.2 (≈ 141 µM) | CCNC(C(=O)c1c[nH]c2c(CC)cccc12)c1ccccc1 (stereo unspecified)
> 49.2 | O=C(c1cccc(Oc2ccc([N+](=O)[O-])cc2)c1)N1CCOCC1
> 43.8 | Cn1c(NNC(=O)c2ccccc2F)cc(=O)n(C)c1=O
> 36 | O=C(CCCc1ccccc1)Nc1ccccn1
> 39.3 | Cc1cccc(NC(=O)C(=O)NCC2CCCO2)c1 (stereo unspecified)
> 42 | O=C1CCN(Cc2ccccc2)C(=O)N1c1ccccc1
> 46.2 | Clc1nc(CN2CCCCC2)nc2sc3c(c12)CCC3
5.6 (≈ 18.2 µM) | S=C(Nc1ccccc1)Nc1ccc(Br)cc1
> 43 | O=C(CSc1cccc[n+]1[O-])N1CCc2ccccc21
> 43.4 | O=C(Cc1ccc([N+](=O)[O-])cc1)c1c(O)cc(O)cc1O
> 41.2 | O=C(NC1CCCC1)C1CCN(c2cnccn2)CC1
4.3 (≈ 11.6 µM) | O=C(CCS(=O)(=O)Cc1ccccc1F)NCc1ccccc1Cl
1.3 (≈ 3.06 µM) | COCCCNc1ncnc2c1sc1nc(-c3ccco3)c3c(c12)CC(C)(C)OC3

solubility kinetic [µg/mL] | SMILES
22.2 (≈ 59.6 µM) | CCC(=O)Nc1cccc(C(=O)N(Cc2ccccc2)Cc2ccccc2)c1
> 44.9 | COC(=O)C1CCN(C(=O)c2ccc3nccnc3c2)CC1
> 40.7 | COc1ccc(NC(=O)O/N=C/c2ccncc2)cc1
11.6 (≈ 31.3 µM) | Cc1ccccc1SCC(=O)OCC(=O)N1CC(=O)Nc2ccccc21
40 (≈ 123 µM) | OCCC1CN(C/C=C/c2ccco2)CCN1Cc1ccccc1 (stereo unspecified)
7.7 (≈ 29 µM) | Cc1noc(C)c1C(=O)Nc1sccc1C(N)=O
23.8 (≈ 100 µM) | Cc1ccc(Cn2c(N)nc3ccccc32)cc1
> 45.4 | C=C(C)c1cccc(C(C)(C)NC(=O)Nc2nncs2)c1
0.6 (≈ 1.96 µM) | O=C(/C=C/C(=O)NCc1cccs1)NCc1cccs1
4.3 (≈ 13.1 µM) | CCC1CN(C(=O)NCc2ccc(F)cc2)c2cc(C)ccc2O1 (stereo unspecified)
> 44.9 | Cc1ccc2nc(SCC(=O)Nc3ncccn3)[nH]c2c1
> 40.8 | O=[N+]([O-])c1ccc(Nc2ccccc2O)c2nonc12
1.2 (≈ 3.82 µM) | NC(=O)c1cc2cc(Cc3ccccc3Cl)ccc2oc1=O
< 0.3 | Cc1cc(F)ccc1NC(=O)Nc1ccc2c(c1)OCO2
11.4 (≈ 33 µM) | O=C(COc1ccccc1Cl)Nc1nc(-c2ccncc2)cs1
0.7 (≈ 1.82 µM) | COc1ccc(C(=O)NC(=S)N(C)C2CCCCC2)cc1Br
11.9 (≈ 38 µM) | Cc1cc(Nc2cccc(Br)c2)c2ccccc2n1
2.8 (≈ 9.26 µM) | CCN(CC)c1ccc(C(=O)OCc2c(C)noc2C)cc1
10.7 (≈ 40.8 µM) | Cc1ccc(S(=O)(=O)Nc2cccnc2)cc1C
0.7 (≈ 3.08 µM) | Cc1ccccc1NC(=O)Nc1ccccn1
45 (≈ 139 µM) | C/C(Cl)=C/Cn1c(N2CCCC2)nc2c1c(=O)[nH]c(=O)n2C
> 42.5 | Cc1nc2c(C#N)cnn2c2c1CCN2CC1CCCO1 (stereo unspecified)
3.6 (≈ 12.7 µM) | CC(NC(=O)/C(C#N)=C/c1cccs1)c1ccccc1 (stereo unspecified)
24.8 (≈ 78.4 µM) | O=C(NCC(O)COc1ccc([N+](=O)[O-])cc1)c1ccccc1 (stereo unspecified)

solubility kinetic [µg/mL] | SMILES
47.4 (≈ 133 µM) | Cc1ccc(C(=O)NC(=S)N2CCN(C)CC2)cc1Br
< 0.8 | Brc1cc(Br)cc(CN2CCSCC2)c1
> 48.7 | CC(NC(=O)c1ccco1)C(=O)N1CC=C(c2ccccc2)CC1 (stereo unspecified)
44.2 (≈ 132 µM) | O=C(/C=C/c1ccc(Br)cc1)NCCCn1ccnc1
> 44.9 | O=C(OCC(=O)N1CCOCC1)c1ccc2ccccc2c1
> 47.6 | CCC(OC(=O)c1ccco1)C(=O)NCc1ccc(OC)cc1 (stereo unspecified)
> 52.2 | COc1ccc(NC(=O)CC(Cc2ccc(Cl)cc2)C(=O)O)cc1 (stereo unspecified)
31.2 (≈ 111 µM) | Cc1ccc(C(=O)NCc2ccc3c(c2)CCO3)cc1C
31.1 (≈ 114 µM) | O=C(c1cccc(F)c1F)N1CCCc2ccccc21
> 43.2 | CS(=O)(=O)Nc1ccc(-c2cn3cccnc3n2)cc1
1.3 (≈ 4.27 µM) | O=C(NCc1ccc2c(c1)OCO2)Nc1cccc(Cl)c1
20.6 (≈ 74.7 µM) | O=C(COc1ccccc1Cl)NCc1ccccc1
> 45.4 | CC1CC(C)CN(C(=O)CCn2c(=O)oc3ccccc32)C1 (stereo unspecified)
36.2 (≈ 134 µM) | CN(CCO)C(=O)C(c1ccccc1)c1ccccc1
12 (≈ 41.6 µM) | O=C(Cc1ccc(-c2ccccc2)cc1)Nc1ccccn1
> 46 | COc1ccc(C(=O)NCC(=O)N2CCCCC2)cc1OC
2 (≈ 6.53 µM) | CC(=O)c1ccc(NC(=O)c2cc(=O)[nH]c3ccccc23)cc1
0.6 (≈ 2.29 µM) | Cc1cccc(/C=C/c2nc3ccccc3c(=O)[nH]2)c1
25.1 (≈ 52.1 µM) | CCCCn1c(N)c(N(CCC(C)C)C(=O)COC(=O)c2ccc([N+](=O)[O-])s2)c(=O)[nH]c1=O
> 49.7 | O=C(CNC(=O)c1ccc(Br)o1)NCC1CCCO1 (stereo unspecified)
21.9 (≈ 77.8 µM) | Cc1ccccc1NC(=O)CCCC(=O)c1ccccc1
10.4 (≈ 22.4 µM) | CC(=O)c1ccc(N(CC(=O)NC2CCS(=O)(=O)C2)S(=O)(=O)c2ccc(C)cc2)cc1 (stereo unspecified)
> 37.7 | CCCNC(=O)COc1ncnc2sccc12
> 47.2 | CCOC(=O)/C=C1\SCC(=O)N1CC(=O)N1CCOCC1

SMILES | solubility kinetic [µg/mL]
CC(C(=O)Nc1ccc(C(F)(F)F)cc1)N(C)CC(=O)N1CCN(Cc2ccccc2)CC1.O=C(O)C(=O)O (stereo unspecified) | 52.1
